Data reported in patent publication EP0906100B1, “USE OF 5-HT 1A? RECEPTOR ANTAGONISTS FOR THE TREATMENT OF URINARY INCONTINENCE” (RECORDATI S.A., priority 1996, dated 1997).

How the values were obtained:
[1] = tested on: rhythmic bladder voiding contractions; test: Volume-induced rhythmic bladder voiding contractions in anaesthetized rats; type: in vivo; details: for AMPLITUDE mm Hg before treatment / FREQUENCY No. contr./15 min before treatment: baseline; for AMPLITUDE mm Hg before treatment / AMPLITUDE mm Hg after treatment: animals with frequency reduction <50%; for AMPLITUDE mm Hg before treatment / FREQUENCY No. contr./15 min before treatment / AMPLITUDE mm Hg after treatment / FREQUENCY No. contr./15 min after treatment: mean±S.E.; for BLADDER CONTRACTIONS Disappearance time: duration of bladder quiescence, mean (S.E. in next cell)
Method: Female Sprague Dawley rats weighing 225-275 g (Crl: CD° BR, Charles River Italia) were used. The animals were housed with free access to food and water and were maintained on a forced 12 h alternating light-dark cycle at 22-24°C for at least one week, except during the experiment. The activity on the rhythmic bladder voiding contractions was evaluated according to the method of Dray (J. Pharmcol. Methods, 13:157, 1985), with some modifications as in Guarneri (Phannacol. Res., 27:173, 1993). […] The catheter was tied in place with a ligature around the external urethral orifice and was connected with conventional pressure transducers (Statham P23 ID/P23 XL). […] The bladder was then filled via the recording catheter by incremental volumes of warm (37°C) saline until reflex bladder voiding contractions occurred (usually 0.8-1.5 ml). Two parameters were recorded from the cystometrogram: the frequency of voiding contractions, calculated by counting the number of peaks/15 min of observation, and the mean amplitude of these contractions (mean height of the peaks in mmHg) in the same time period. For intravenous (i. v. ) injection of bioactive compounds, a PE 50 polyethylene tubing filled with physiological saline was inserted into the jugular vein.
Bioactivity was assessed in individual animals (using 6-10 rats per dose), by recording the number and height of the peaks for 15 min after drug injection and comparing them with those previously recorded for 15 min after the intravenous administration of vehicle alone. […] The statistical significance of changes in frequency and amplitude before and after treatment was assessed by Student's t test for paired data. Changes showing a probability P<0.01 were considered significant.
An all-or-none criterion was also used to compare bioactivity in terms of ED50 values. Rats showing a treatment-related change of ≥30% relative to the basal value were considered to be positive. Quantal dose-response curves and ED50 values were evaluated by the method of Bliss (J. Pharm. Pharmacol., 11:192, 1938).
The rapid distension of the urinary bladder in urethane-anaesthetized rats produced a series of rhythmic bladder voiding contractions whose characteristics have been described (Maggie et al., Brain Res., 380, 83, 1986; Maggi, et al., J. Pharmacol. Exp. Ther., 230, 500, 1984). The frequency of these contractions is related to the sensory afferent arm of reflex micturition and to the integrity of the micturition centre, while their amplitude is a property of the efferent arm of the reflex (Maggi et al., J. Pharmacol. Meth., 15, 157, 1986; Maggi et al., Brain Res.. 415, 1, 1987; Maggi et al., Naun. Schmied. Arch. Pharmacol., 332, 276, 1986; Maggi et al., J. Urol., 136, 696, 1986).

[2] = tested on: cystometric parameters (bladder volume capacity, micturition pressure); test: Cystometric parameters (BVC, MP) in the conscious rat; type: in vivo, rats; details: for BVC before treatment / MP before treatment: baseline; for BVC before treatment / MP before treatment / BVC after treatment / MP after treatment: mean±S.E.; for BVC % change / MP % change / BVC after treatment / MP after treatment: 15 min after injection
Method: Male Sprague Dawley rats (Crl: CD° BR) weighing 250-350 g were used. The animals were housed with free access to food and water and maintained on a forced 12 h alternating light-dark cycle at 22-24°C for at least one week, except during performance of the experiment.
An approximately 10 mm long midline incision was made in the shaved and cleaned abdominal wall. The urinary bladder was gently freed from adhering tissues, emptied, and then cannulated, via an incision at the dome, with a polyethylene cannula (Portex PP30), which was permanently sutured with silk thread. The cannula was exteriorized through a subcutaneous tunnel in the retroscapular area, where it was connected with a plastic adapter to avoid the risk of removal by the animal. For intravenous (i.v.) injection of test compounds, a PE 50 polyethylene tubing filled with physiological saline was inserted into the jugular vein and exteriorized in the retroscapular area.
Since cystometrographic parameters have been reported to be influenced by the time elapsed after catheter implantation […].
On the day of the experiment, the rats were placed in Bollman's cages; after a stabilization period of 20 min, the free tip of the bladder catheter was connected through a T-shaped tube to a pressure transducer (Bentley T 800/Marb P 82) and to a peristaltic pump (Gilson minipuls 2) for a continuous infusion, at the constant rate of 0.1 ml/min, of saline solution into the urinary bladder. The intraluminal pressure signal during infusion was continuously recorded on a polygraph (Battaglia Rangoni KO 380 with ADC1/T amplifier). Two urodynamic parameters were evaluated: bladder volume capacity (BVC) and micturition pressure (MP). BVC (in ml) is defined as the minimum volume infused after which detrusor contraction (followed by micturition) occurs. MP (in mmHg) is defined as the maximal intravesical pressure induced by the contraction of detrusor during micturition. Basal BVC and MP values were calculated as the means of the first two recorded cystometrograms. At this point, the infusion was interrupted and the test compounds were administered. Fifteen minutes after intravenous administration, or one hour after oral drug administration, two additional cystometrograms were recorded in each animal and the mean values of the two cystometrographic parameters were calculated.
The statistical significance of the differences in urodynamic parameter values was evaluated by Student's t test for paired data. Only changes showing a probability P<0.01 were considered to be significant.

`Cc1c(-c2ccccc2)oc2c(C(=O)OCCN3CCCCC3)cccc2c1=O` [Flavoxate, flavoxate] was tested, and the “AMPLITUDE mm Hg before treatment” value ([1]; 300 µg/kg i.v. group) was 25.9±1.3 mm Hg, the “FREQUENCY No. contr./15 min before treatment” value ([1]; 300 µg/kg i.v. group) was 9.2±1.2 No. contr./15 min and the “AMPLITUDE mm Hg after treatment” value ([1]; 300 µg/kg i.v.) was 24.1±1.8 mm Hg. The “BLADDER CONTRACTIONS Disappearance time” value ([1]; 300 µg/kg i.v.) was 1.70 min, the “FREQUENCY No. contr./15 min after treatment” value ([1]; 300 µg/kg i.v.) was 8.8±1.7 No. contr./15 min and the “AMPLITUDE mm Hg before treatment” value ([1]; 1000 µg/kg i.v. group) was 26.1±2.3 mm Hg. The “FREQUENCY No. contr./15 min before treatment” value ([1]; 1000 µg/kg i.v. group) was 10.1±0.7 No. contr./15 min, the “AMPLITUDE mm Hg after treatment” value ([1]; 1000 µg/kg i.v.) was 25.0±2.2 mm Hg and the “BLADDER CONTRACTIONS Disappearance time” value ([1]; 1000 µg/kg i.v.) was 3.04 min. For the same molecule, the “FREQUENCY No. contr./15 min after treatment” value ([1]; 1000 µg/kg i.v.) was 8.6±0.9 No. contr./15 min, the “AMPLITUDE mm Hg before treatment” value ([1]; 3000 µg/kg i.v. group) was 18.9±0.9 mm Hg and the “FREQUENCY No. contr./15 min before treatment” value ([1]; 3000 µg/kg i.v. group) was 10.7±0.7 No. contr./15 min. For the same molecule, the “AMPLITUDE mm Hg after treatment” value ([1]; 3000 µg/kg i.v.) was 16.6±1.2 mm Hg, the “BLADDER CONTRACTIONS Disappearance time” value ([1]; 3000 µg/kg i.v.) was 5.30 min and the “FREQUENCY No. contr./15 min after treatment” value ([1]; 3000 µg/kg i.v.) was 6.5±0.7 No. contr./15 min. For the same molecule, the “AMPLITUDE mm Hg before treatment” value ([1]; 10000 µg/kg i.v. group) was 19.9±1.6 mm Hg, the “FREQUENCY No. contr./15 min before treatment” value ([1]; 10000 µg/kg i.v. group) was 11.3±0.8 No. contr./15 min and the “AMPLITUDE mm Hg after treatment” value ([1]; 10000 µg/kg i.v.) was 19.2±1.5 mm Hg. The “BLADDER CONTRACTIONS Disappearance time” value ([1]; 10000 µg/kg i.v.) was 8.25 min, the “BLADDER CONTRACTIONS Disappearance time” value ([1]; 10000 µg/kg i.v., listed as flavoxate) was 8.25 ± 1.90 min and the “FREQUENCY No. contr./15 min after treatment” value ([1]; 10000 µg/kg i.v.) was 5.5±0.6 No. contr./15 min. For the same molecule, the ED (10 min disappearance of contractions) ([1]; Rattus norvegicus, iv, 10 min, extrapolated dose inducing 10 min of disappearance of the contractions, linear regression) was > 10 mg/kg, the ED50 ([1]; Rattus norvegicus, iv, read-out: ED50 FREQUENCY (and 95% confidence limits), i.v., quantal criterion (change ≥30% relative to basal value)) was 2.65 mg/kg and the BVC before treatment ([2]; 300 µg/kg i.v. group) was 0.76 ± 0.11 mL. For the same molecule, the MP before treatment ([2]; 300 µg/kg i.v. group) was 89.2±10.7 mmHg, the BVC % change ([2]; 300 µg/kg i.v.) was “+14%” and the MP % change ([2]; 300 µg/kg i.v.) was “+7%”. It also gave a BVC after treatment ([2]; 300 µg/kg i.v.) of 0.87 ± 0.11 mL, an MP after treatment ([2]; 300 µg/kg i.v.) of 95.0±10.9 mmHg and a BVC before treatment ([2]; 1000 µg/kg i.v. group) of 0.88 ± 0.15 mL. For the same molecule, the MP before treatment ([2]; 1000 µg/kg i.v. group) was 90.4±10.7 mmHg, the BVC % change ([2]; 1000 µg/kg i.v.) was “+26%” and the MP % change ([2]; 1000 µg/kg i.v.) was -12%. For the same molecule, the BVC after treatment ([2]; 1000 µg/kg i.v.) was 1.11 ± 0.16 mL, the MP after treatment ([2]; 1000 µg/kg i.v.) was 80.1±11.1 mmHg and the BVC before treatment ([2]; 3000 µg/kg i.v. group) was 0.77 ± 0.08 mL. The MP before treatment ([2]; 3000 µg/kg i.v. group) was 72.6±9.3 mmHg, the BVC % change ([2]; 3000 µg/kg i.v.) was “+39%” and the MP % change ([2]; 3000 µg/kg i.v.) was “+4%”. For the same molecule, the BVC after treatment ([2]; 3000 µg/kg i.v.) was 1.07 ± 0.12 mL, the MP after treatment ([2]; 3000 µg/kg i.v.) was 75.2±9.5 mmHg and the “effect on MP (in words)” value ([2]; conscious rats, i.v., NAN-190 up to the highest administrable dose of 300 µg/kg) was “inactive”.
